Tested on: K562 cells
Assay: Apoptosis (AnnexinV/7-AAD) in K562 cells treated with Ara-C or ATO
Type: cell-based, human
Settings: K562 transduced with empty vector; ATO 1 μM, Ara-C 0.5 μM
Description: K562 cells (Lozzio and Lozzio, 1979) were then transduced with viral vectors expressing f-circM9. Cells transduced only with an empty vector were used as control. F-circM9-expressing cells were sorted for a pure population and were subsequently subjected to treatment with Ara-C and ATO. […] On the contrary, clear differences were noticed in treated cells.
THP-1, K562, U937, HL-60, Kasumi and NB4 cell lines were maintained in RPMI medium supplemented with 10% FBS. MEFs Arf−/− cells were grown in DMEM supplemented with 10% FBS. Primary leukemic cells transduced with MLL/AF9 cDNA were maintained in StemSpan medium (Stem Cell Technologies) supplemented with IL6 (15 ng/ml), IL3 (15 ng/ml) TPO (50 ng/ml) and SCF (50 ng/ml) during the transduction with retroviral vectors. Cells were grown at 37° C. in a 5% CO2 humidified incubator. Fractionation of the cells to separate nucleus and cytoplasm has been performed using PARIS-kit (Ambion) following the manufacturer's instructions. The efficiency of the separation of the 2 fractions was assessed by Western blot analysis of β-actin (cytosol) and […] (nucleus). […]
Apoptotic cells were analyzed with 7AAD and Annexin-V-APC. Cells were stained for 15 minutes with both markers and then analyzed using LRSII (BD, Pharmingen).

Row | Molecule | apoptosis upon drug treatment
1 | Nc1ccn([C@@H]2O[C@H](CO)[C@@H](O)[C@@H]2O)c(=O)n1 [Ara-C, cytarabine] | signs of apoptosis
2 | Arsenic trioxide [ATO] | signs of apoptosis
